ChEMBL document CHEMBL1147830, “Isoquinoline-pyridine-based protein kinase B/Akt antagonists: SAR and in vivo antitumor activity” (Bioorg Med Chem Lett, 2006)

How the values were obtained:
[1] = target: T1, Protein kinase C epsilon type (Homo sapiens, UniProt Q02156); test: Inhibition of PKC epsilon at 5 uM ATP
T1 sequence (Q02156 whole entry): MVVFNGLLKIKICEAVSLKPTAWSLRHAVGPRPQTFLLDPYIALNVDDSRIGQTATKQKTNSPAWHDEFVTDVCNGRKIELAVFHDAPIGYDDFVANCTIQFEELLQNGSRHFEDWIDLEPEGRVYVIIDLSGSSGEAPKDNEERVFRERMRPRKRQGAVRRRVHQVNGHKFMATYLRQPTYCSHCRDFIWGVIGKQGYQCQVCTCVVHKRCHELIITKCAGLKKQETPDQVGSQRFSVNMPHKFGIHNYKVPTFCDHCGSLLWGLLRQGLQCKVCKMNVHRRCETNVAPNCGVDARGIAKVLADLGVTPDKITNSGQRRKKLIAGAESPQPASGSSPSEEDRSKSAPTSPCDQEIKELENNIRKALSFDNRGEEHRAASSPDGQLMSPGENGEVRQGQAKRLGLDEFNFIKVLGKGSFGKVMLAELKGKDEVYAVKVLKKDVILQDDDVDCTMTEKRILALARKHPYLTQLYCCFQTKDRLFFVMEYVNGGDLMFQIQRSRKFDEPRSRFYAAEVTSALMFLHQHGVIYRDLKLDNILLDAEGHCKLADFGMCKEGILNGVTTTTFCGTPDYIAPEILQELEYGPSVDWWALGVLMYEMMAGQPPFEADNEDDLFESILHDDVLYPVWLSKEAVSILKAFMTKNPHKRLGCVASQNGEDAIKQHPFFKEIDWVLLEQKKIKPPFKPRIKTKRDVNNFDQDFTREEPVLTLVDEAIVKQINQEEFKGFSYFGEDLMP

[2] = target: cAMP-dependent protein kinase (PKA) (Homo sapiens, UniProt P22694+P17612+P22612); test: Inhibition of PKA at 5 uM ATP; format: protein assay
MIA PaCa-2 = test: Antiproliferative activity against human MiaPaCa2 cells by MTT assay; format: functional, cell-based
[3] = target: Mitogen-activated protein kinase 1 (Homo sapiens, UniProt P28482); test: Inhibition of ERK2 at 5 uM ATP
[4] = target: RAC-gamma serine/threonine-protein kinase (Homo sapiens, UniProt Q9Y243); test: Inhibition of Akt3 at 5 uM ATP
[5] = target: Proto-oncogene tyrosine-protein kinase Src (Homo sapiens, UniProt P12931); test: Inhibition of SRC at 5 uM ATP
[6] = target: Protein kinase C gamma type (Homo sapiens, UniProt P05129); test: Inhibition of PKC gamma at 5 uM ATP
[7] = target: Cyclin-dependent kinase 1 (Homo sapiens, UniProt P06493); test: Inhibition of CDK1 at 5 uM ATP
Casein kinase II = Casein kinase II (Homo sapiens, UniProt P19784+P67870+P68400); test: Inhibition of CK2 at 5 uM ATP; format: protein-complex assay
[8] = target: RAC-beta serine/threonine-protein kinase (Homo sapiens, UniProt P31751); test: Inhibition of Akt2 at 5 uM ATP
[9] = Half life in CD1 mouse at 3 mg/kg, iv; format: ADME, organism-based; parameters: dose 3 mg/kg, route intravenous; conditions: in vivo
[10] = Clearance in CD1 mouse at 3 mg/kg, iv or 10 mg/kg, po or 30 mg, sc; format: ADME, organism-based; parameters: unit not given here; conditions: in vivo
[11] = Bioavailability in CD1 mouse at 10 mg/kg, po; format: ADME, organism-based; conditions: in vivo
[12] = AUC in CD1 mouse at 10 mg/kg, po; format: ADME, organism-based; parameters: dose 10 mg/kg, route oral; conditions: plasma
[13] = Volume of distribution in CD1 mouse at 3 mg/kg, iv or 10 mg/kg, po or 30 mg, sc; format: ADME, organism-based; conditions: in vivo, read-out: Vdss
[14] = target: RAC-alpha serine/threonine-protein kinase (Homo sapiens, UniProt P31749); test: Inhibition of GSK3 phosphorylation; format: functional
[15] = AUC in CD1 mouse at 30 mg, sc; format: ADME, organism-based; conditions: plasma
[16] = Antiproliferative activity against mouse FL5.12 cells overexpressing Akt1 by MTT assay

Sequence of Casein kinase II (P67870 whole entry): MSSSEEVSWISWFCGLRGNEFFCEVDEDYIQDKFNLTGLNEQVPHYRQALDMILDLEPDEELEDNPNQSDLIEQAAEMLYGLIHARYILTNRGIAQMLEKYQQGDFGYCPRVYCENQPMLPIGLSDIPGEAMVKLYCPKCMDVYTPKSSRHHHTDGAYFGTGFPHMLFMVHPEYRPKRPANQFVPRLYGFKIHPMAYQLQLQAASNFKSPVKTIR
Sequence of Casein kinase II (P68400 whole entry): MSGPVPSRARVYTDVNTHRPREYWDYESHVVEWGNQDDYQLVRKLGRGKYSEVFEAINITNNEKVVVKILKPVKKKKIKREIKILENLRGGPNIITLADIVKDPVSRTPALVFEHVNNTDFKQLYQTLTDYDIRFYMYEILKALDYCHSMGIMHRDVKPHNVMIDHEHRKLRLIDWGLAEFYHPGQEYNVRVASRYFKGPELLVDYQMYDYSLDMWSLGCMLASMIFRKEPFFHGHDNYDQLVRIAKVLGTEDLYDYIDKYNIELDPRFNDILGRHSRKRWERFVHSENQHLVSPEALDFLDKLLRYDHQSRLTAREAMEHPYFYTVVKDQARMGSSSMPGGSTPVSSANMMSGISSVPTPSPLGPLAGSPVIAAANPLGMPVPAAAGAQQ
Sequence of Casein kinase II (P19784 whole entry): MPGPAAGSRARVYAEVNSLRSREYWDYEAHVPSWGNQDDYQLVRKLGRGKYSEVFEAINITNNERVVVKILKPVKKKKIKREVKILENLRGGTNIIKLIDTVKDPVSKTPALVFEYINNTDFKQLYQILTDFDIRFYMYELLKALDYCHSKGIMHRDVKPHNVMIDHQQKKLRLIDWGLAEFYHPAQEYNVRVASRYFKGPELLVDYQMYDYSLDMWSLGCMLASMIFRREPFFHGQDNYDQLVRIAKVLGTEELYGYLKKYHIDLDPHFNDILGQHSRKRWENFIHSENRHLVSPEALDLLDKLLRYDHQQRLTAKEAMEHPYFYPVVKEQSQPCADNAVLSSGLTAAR
Sequence of RAC-beta serine/threonine-protein kinase (P31751 whole entry): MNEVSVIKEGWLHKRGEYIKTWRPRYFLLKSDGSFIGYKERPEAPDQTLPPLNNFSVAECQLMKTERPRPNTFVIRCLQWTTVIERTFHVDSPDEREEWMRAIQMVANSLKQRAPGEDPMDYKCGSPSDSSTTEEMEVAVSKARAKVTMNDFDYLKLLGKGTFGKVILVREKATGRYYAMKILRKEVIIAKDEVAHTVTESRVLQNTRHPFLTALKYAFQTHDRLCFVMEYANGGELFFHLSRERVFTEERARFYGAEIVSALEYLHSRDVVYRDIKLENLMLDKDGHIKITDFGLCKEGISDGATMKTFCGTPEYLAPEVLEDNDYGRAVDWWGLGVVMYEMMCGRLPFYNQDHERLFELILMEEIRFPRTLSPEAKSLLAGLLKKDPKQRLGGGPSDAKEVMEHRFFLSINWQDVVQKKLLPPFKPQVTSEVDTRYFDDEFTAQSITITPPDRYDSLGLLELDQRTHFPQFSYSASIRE
Sequence of Cyclin-dependent kinase 1 (P06493 whole entry): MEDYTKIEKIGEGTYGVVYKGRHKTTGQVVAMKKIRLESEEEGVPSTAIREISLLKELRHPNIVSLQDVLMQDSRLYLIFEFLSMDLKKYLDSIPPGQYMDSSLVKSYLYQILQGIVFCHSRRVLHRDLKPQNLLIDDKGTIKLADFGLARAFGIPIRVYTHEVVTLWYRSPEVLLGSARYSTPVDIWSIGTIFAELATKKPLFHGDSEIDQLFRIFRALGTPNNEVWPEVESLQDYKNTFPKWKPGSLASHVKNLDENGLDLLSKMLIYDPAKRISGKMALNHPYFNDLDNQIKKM
Sequence of RAC-alpha serine/threonine-protein kinase (P31749 whole entry): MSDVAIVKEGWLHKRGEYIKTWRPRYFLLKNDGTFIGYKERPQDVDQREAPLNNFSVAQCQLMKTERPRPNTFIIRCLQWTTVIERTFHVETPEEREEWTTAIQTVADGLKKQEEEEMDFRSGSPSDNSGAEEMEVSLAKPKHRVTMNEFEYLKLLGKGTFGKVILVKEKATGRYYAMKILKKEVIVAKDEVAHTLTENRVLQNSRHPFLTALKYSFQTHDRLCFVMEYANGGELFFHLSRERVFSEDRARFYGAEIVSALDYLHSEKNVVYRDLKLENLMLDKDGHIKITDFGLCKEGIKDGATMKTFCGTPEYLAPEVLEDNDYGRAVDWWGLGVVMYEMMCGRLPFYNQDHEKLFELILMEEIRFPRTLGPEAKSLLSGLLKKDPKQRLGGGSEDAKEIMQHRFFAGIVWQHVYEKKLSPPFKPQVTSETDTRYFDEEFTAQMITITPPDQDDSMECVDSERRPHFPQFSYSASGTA
Sequence of Mitogen-activated protein kinase 1 (P28482 whole entry): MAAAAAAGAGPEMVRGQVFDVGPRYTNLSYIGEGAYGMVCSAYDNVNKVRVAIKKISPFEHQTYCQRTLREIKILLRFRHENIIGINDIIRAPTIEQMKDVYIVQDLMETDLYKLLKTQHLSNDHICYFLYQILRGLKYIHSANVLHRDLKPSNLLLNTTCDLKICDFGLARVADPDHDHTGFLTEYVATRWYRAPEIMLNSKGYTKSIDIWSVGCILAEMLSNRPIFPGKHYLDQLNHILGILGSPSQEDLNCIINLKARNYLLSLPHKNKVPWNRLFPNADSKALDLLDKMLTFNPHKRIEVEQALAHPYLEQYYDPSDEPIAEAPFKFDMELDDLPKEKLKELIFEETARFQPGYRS
Sequence of Proto-oncogene tyrosine-protein kinase Src (P12931 2-536 limits assumed): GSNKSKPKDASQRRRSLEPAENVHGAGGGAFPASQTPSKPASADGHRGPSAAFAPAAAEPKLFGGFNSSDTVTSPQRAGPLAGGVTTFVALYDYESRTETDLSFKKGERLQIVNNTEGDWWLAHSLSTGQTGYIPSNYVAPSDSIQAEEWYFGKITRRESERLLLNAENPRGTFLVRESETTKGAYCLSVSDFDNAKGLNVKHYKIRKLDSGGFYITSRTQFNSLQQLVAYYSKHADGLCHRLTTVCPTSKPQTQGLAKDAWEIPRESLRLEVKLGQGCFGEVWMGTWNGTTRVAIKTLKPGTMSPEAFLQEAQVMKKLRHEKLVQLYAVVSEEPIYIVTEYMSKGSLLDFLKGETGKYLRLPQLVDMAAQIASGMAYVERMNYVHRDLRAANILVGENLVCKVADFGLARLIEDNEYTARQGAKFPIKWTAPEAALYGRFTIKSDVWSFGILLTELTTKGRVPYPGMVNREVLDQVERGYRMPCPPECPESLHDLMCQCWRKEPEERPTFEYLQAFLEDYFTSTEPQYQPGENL
Sequence of RAC-gamma serine/threonine-protein kinase (Q9Y243 whole entry): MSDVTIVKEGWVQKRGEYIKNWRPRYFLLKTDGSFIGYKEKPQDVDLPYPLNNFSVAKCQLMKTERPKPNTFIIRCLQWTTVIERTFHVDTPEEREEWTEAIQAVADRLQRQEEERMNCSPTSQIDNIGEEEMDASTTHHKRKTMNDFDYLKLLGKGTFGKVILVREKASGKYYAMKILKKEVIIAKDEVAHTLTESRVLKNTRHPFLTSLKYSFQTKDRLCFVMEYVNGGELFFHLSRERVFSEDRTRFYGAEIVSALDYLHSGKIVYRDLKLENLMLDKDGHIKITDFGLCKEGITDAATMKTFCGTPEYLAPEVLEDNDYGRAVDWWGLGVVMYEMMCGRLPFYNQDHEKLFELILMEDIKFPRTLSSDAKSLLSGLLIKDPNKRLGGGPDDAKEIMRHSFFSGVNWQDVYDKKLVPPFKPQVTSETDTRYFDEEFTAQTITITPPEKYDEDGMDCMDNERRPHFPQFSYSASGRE

Structure (SMILES)	IC50 [1] [nM]	IC50 [2] [nM]	IC50 (MIA PaCa-2) [nM]	IC50 [3] [nM]	IC50 [4] [nM]	IC50 [5] [nM]	IC50 [6] [nM]	IC50 [7] [nM]	IC50 (Casein kinase II) [nM]	IC50 [8] [nM]	half-life [9] [h]	clearance [10]	bioavailability [11] [%]	AUC [12] [ng·h/mL]	Vd [13] [L/kg]	IC50 [14] [nM]	AUC [15] [ng·h/mL]	IC50 [16] [nM]
C#Cc1ncc(OC[C@@H](N)Cc2c[nH]c3ccccc23)cc1-c1ccc2cnccc2c1	8900	1	10800	27200	39	> 50000	260	4900	> 50000	5	–	–	–	–	–	–	–	–
N[C@H](COc1cncc(-c2ccc3c(Cl)nccc3c2)c1)Cc1c[nH]c2ccccc12	–	–	–	–	–	–	–	–	–	–	5	21.7	51	3900	9.5	–	–	–
Cc1cc(-c2cncc(OC[C@@H](N)Cc3c[nH]c4ccccc34)c2)cc2ccncc12	–	–	–	–	–	–	–	–	–	–	4.5	41.7	35	1500	16.4	–	–	–
N[C@H](COc1cncc(-c2ccc3cnc(F)cc3c2)c1)Cc1c[nH]c2ccccc12	–	48	3180	–	–	18000	–	3400	–	–	–	–	–	–	–	–	–	–
Nc1cc2cc(-c3cncc(OC[C@@H](N)Cc4c[nH]c5ccccc45)c3)ccc2cn1	8300	8	100	1200	76	480	31	22	620	21	0.7	202	0	–	11.8	930	6900	–
N[C@H](COc1cncc(-c2ccc3cnc(Cl)cc3c2)c1)Cc1c[nH]c2ccccc12	–	–	–	–	–	–	–	–	–	–	2	90	27	910	15.5	–	–	–
N[C@H](COc1cnc(Cl)c(-c2ccc3cnccc3c2)c1)Cc1c[nH]c2ccccc12	> 5000	5	13300	37000	73	12100	540	870	12700	5	–	–	–	–	–	3000	–	–
N[C@H](COc1cncc(-c2ccc3cnccc3c2)c1)Cc1c[nH]c2ccccc12	6100	–	–	–	–	2000	–	–	–	–	0.3	–	0	–	7	1500	7600	420
